target: T1, Peroxisome proliferator-activated receptor gamma (Homo sapiens, UniProt P37231); test: Transactivation activity at Homo sapiens (human) PPARgamma
T1 sequence (P37231 whole entry): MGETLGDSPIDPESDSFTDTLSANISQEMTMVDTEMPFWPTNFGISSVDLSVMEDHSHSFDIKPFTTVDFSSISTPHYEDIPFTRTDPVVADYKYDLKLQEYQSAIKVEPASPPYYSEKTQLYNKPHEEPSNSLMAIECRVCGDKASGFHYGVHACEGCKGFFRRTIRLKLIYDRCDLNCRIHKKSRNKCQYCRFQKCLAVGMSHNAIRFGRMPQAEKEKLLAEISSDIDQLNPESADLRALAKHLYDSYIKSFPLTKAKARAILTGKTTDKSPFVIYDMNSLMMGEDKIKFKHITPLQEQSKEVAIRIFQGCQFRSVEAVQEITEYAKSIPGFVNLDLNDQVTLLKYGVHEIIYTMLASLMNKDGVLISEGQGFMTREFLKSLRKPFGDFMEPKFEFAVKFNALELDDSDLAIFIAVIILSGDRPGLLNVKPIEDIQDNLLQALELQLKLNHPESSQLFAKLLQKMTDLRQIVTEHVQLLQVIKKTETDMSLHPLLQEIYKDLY

| Compound | EC50 |
| --- | --- |
| CCCc1cc(Oc2ccccc2)ccc1OCCCCOc1ccc(-c2sc(=O)[nH]c2O)cc1 [5-{4-[4-(4-Phenoxy-2-propyl-phenoxy)-butoxy]-phenyl}-thiazolidine-2,4-dione] | 1 µM |
| O=c1[nH]c(O)c(Cc2ccc3c(c2)CC[C@H](Cc2ccccc2)O3)s1 [5-((R)-2-Benzyl-chroman-6-ylmethyl)-thiazolidine-2,4-dione] | 1 µM |

target: T1, Peroxisome proliferator-activated receptor gamma; test: Transactivation activity at PPARgamma (unknown origin)

| EC50 | Compound |
| --- | --- |
| 1.6 µM | CC/C(=N\OCCOc1ccc(Cc2sc(=O)[nH]c2O)cc1)c1ccc(-c2ccccc2)cc1 [5-(4-{2-[1-Biphenyl-4-yl-prop-(E)-ylideneaminooxy]-ethoxy}-benzyl)-thiazolidine-2,4-dione] |
| 2.8 µM | C/C(=N\OCCOc1ccc(Cc2sc(=O)[nH]c2O)cc1)c1ccccn1 [5-(4-{2-[1-Pyridin-2-yl-eth-(E)-ylideneaminooxy]-ethoxy}-benzyl)-thiazolidine-2,4-dione] |
| 1.6 µM | C/C(=N\OCCOc1ccc(Cc2sc(=O)[nH]c2O)cc1)c1ccc(-c2ccncc2)cc1 [5-(4-{2-[1-(4-Pyridin-4-yl-phenyl)-eth-(E)-ylideneaminooxy]-ethoxy}-benzyl)-thiazolidine-2,4-dione] |
| 2.8 µM | C/C(=N\OCCOc1ccc(Cc2sc(=O)[nH]c2O)cc1)c1cccnc1 [5-(4-{2-[1-Pyridin-3-yl-eth-(E)-ylideneaminooxy]-ethoxy}-benzyl)-thiazolidine-2,4-dione] |

Source: BindingDB's records for doi:10.1007/s00044-010-9428-9 (n/a, 2011)
